{"source": "paper PMC11201946", "about": "(Cancers, 2024)", "key": {"[1]": {"test": "Population pharmacokinetic (popPK) model of plasma concentrations in adult patients (OpTAT study)", "text": "Data were collected during the OpTAT study. […] Blood samples were collected from patients during their regular medical visits, with a maximum of eight samples taken per patient.\nThe digital monitor allowed us to provide accurate information on treatment implementation (i.e., the extent to which the patient’s dosing history is in line with the prescription—the correct dosing regimen, at the correct time and in the right condition) and temporary or long-term discontinuation of treatment (i.e., when the patient stops taking the treatment prematurely). For the remaining patients, dosing history was reconstructed based on information from the medical consultation notes, assuming steady-state condition if no information was available. Patient demographic and clinical data were extracted from medical records. For all clinical and laboratory data (e.g., body weight, hepatic or renal function), the closest measurement to the blood sample was used. If no measurement was taken within 10 days before or after the sample, then it was considered a missing value. Creatinine clearance (CrCL) was estimated using the Cockcroft–Gault formula [43]. Fat-free mass (FFM) was calculated using the following formula [44]:(1) FFMkg=BW×1−BFPbmi/100 with BW denoting bodyweight in kg and BFPbmi denoting body fat percentage, calculated using the following formula:(2) BFPbmi%=1.20×BMI+0.23×AGE−10.8×SEX−5.4 with BMI representing body mass index, in kg/m^2. SEX = 0 if women and 1 if men and AGE is provided in years.\nThe development of the population pharmacokinetic (popPK) model was performed using nonlinear mixed-effect modelling (Nonmem, ICON, Dublin, Ireland, version 7.4.3) and Pearl speaks Nonmem (PsN, version 4.8.0). Pirana (Certara, Radnor, PA, USA, version 2.9.6) was used for the management of runs, R (version 4.0.2), for graphical and statistical analyses.\nA classical stepwise procedure was used to build the model. […] Inter-individual variability (IIV) was successively incorporated into each PK parameter. Different error models, including additive, proportional, and combined error models, were also assessed. Different values retrieved from the literature of absorption rate constants (ka), ranging from 0.4 to 2 h^−1, were evaluated due to insufficient data being collected during the absorption phase. For each patient, the time required to reach maximum concentration (Tmax) was estimated.\nBiologically relevant covariates were introduced into the model through a forward/backward insertion/deletion method. Covariates tested were sex, body weight, body mass index (BMI), body surface area (BSA), age, FFM, CrCL, urea, total bilirubin, alkaline phosphatase (PAL), aspartate aminotransferase (ASAT), alanine aminotransferase (ALAT), concomitant administration of dabrafenib, and food intake. Initially, a univariate analysis was conducted, during which covariates were added one by one to the model. Continuous covariates were centred and normalized to the population median and were added to the model using either linear or allometric relationships, while categorical covariates followed a linear relationship. Missing values were assigned the population median. Subsequently, a multivariate analysis was performed of the identified significant covariates to develop the comprehensive model. Finally, a reductive analysis was performed to retain only the most significant covariates.\nThe assumption of steady state for patients without adherence information may have biased the analysis by interpreting low levels as high clearances resulting from missed doses rather than from a covariate effect. To verify this, a sensitivity analysis was conducted of the 11 patients with full adherence information. We assumed that if the significant covariate–parameter relationship persisted, its influence on the pharmacokinetic parameter would be confirmed, whereas, if not, this influence might have been confounded by other factors, including suboptimal adherence."}, "[2]": {"test_system": "cytochrome P (CYP) enzymes", "parameters": "method as in earlier work", "conditions": "cited from earlier work"}, "[3]": {"conditions": "cited from earlier work"}, "[4]": {"conditions": "cited from earlier work", "remark": "listed apart in the source"}, "[5]": {"parameters": "method as in PMID 32283865", "conditions": "fixed to a literature value; cited from earlier work"}, "[6]": {"conditions": "Figure 1; cited from earlier work"}, "[7]": {"conditions": "cited from earlier work", "remark": "listed apart in the source"}, "[8]": {"conditions": "bootstrap performed on 2000 runs"}}, "note": "Several values for one entry are separate records, joined by “and”; a condition that tells them apart may be missing. Identical values can stand only once. Like-named read-outs stand apart in the source and are kept apart here."}
{"compound": "CC(=O)Nc1cccc(-n2c(=O)n(C3CC3)c(=O)c3c(Nc4ccc(I)cc4F)n(C)c(=O)c(C)c32)c1", "note": "[trametinib]", "values": [{"measurement": "decrease in CL", "setting": "[1]; 80-year-old versus 30-year-old patient", "value": 40, "unit": "%"}, {"measurement": "increase in CL", "setting": "[1]; FFM of 68 kg compared with population median of 46.35 kg", "value": 66, "unit": "%"}, {"measurement": "IIV (CV%) on CL, base model", "setting": "[1]; base two-compartment model", "value": 45, "unit": "%"}, {"measurement": "central volume (V2), base model", "setting": "[1]; base two-compartment model", "value": 102, "unit": "L"}, {"measurement": "intercompartmental clearance (Q), base model", "setting": "[1]; base two-compartment model", "value": 35.1, "unit": "L/h"}, {"measurement": "peripheral volume (V3), base model", "setting": "[1]; base two-compartment model", "value": 338, "unit": "L"}, {"measurement": "IIVCL, Bootstrap Median (95% PI)", "setting": "[1]; [8]", "value": "22 (13, 28) %"}, {"measurement": "Q, Bootstrap Median (95% PI)", "setting": "[1]; [8]", "value": "28.83 (12.69, 60.68) L·h^−1"}, {"measurement": "V2, Bootstrap Median (95% PI)", "setting": "[1]; [8]", "value": "101.84 (65.42, 143.40) L"}, {"measurement": "V3, Bootstrap Median (95% PI)", "setting": "[1]; [8]", "value": "286.48 (104.63, 385.40) L"}, {"measurement": "θAGE, Bootstrap Median (95% PI)", "setting": "[1]; [8]", "value": "−0.66 (−1.25 to −0.20)"}, {"measurement": "θCL, Bootstrap Median (95% PI)", "setting": "[1]; [8]", "value": "3.98 (3.52, 4.45) L·h^−1"}, {"measurement": "θFFM, Bootstrap Median (95% PI)", "setting": "[1]; [8]", "value": "1.41 (0.92, 1.90)"}, {"measurement": "σprop, Bootstrap Median (95% PI)", "setting": "[1]; [8]", "value": "20 (16, 24) %"}, {"measurement": "Tmax, median (min, max) estimated per patient", "setting": "[1]; both, human, in vivo", "value": 1.7, "unit": "h"}, {"measurement": "Tmax", "setting": "[1]; both, human, in vivo, Tmax, median (min, max) estimated per patient", "value": 1.75, "unit": "h"}, {"measurement": "clearance", "setting": "[1]; both, human, plasma, oral", "value": 70, "unit": "mL/min"}, {"measurement": "CL variability explained by age", "setting": "[1]; covariate age", "value": 21, "unit": "%"}, {"measurement": "increase in CL with coadministration of dabrafenib", "setting": "[1]; covariate analysis, RSE = 46%, effect excluded after sensitivity analysis (adherence confounding)", "value": 40, "unit": "%"}, {"measurement": "CL variability explained by FFM", "setting": "[1]; covariate fat-free mass", "value": 66, "unit": "%"}, {"measurement": "IIVCL (inter-individual variability of CL, CV), Final Model Estimation (RSE %)", "setting": "[1]; final model", "value": "23 (14) %"}, {"measurement": "Q (typical intercompartmental clearance), Final Model Estimation (RSE %)", "setting": "[1]; final model", "value": "29.4 (30) L·h^−1"}, {"measurement": "V2 (typical volume of distribution, central), Final Model Estimation (RSE %)", "setting": "[1]; final model", "value": "108 L and 108 (16) L"}, {"measurement": "V3 (peripheral volume of distribution), Final Model Estimation (RSE %)", "setting": "[1]; final model", "value": "286 L and 286 (25) L"}, {"measurement": "θCL (typical clearance), Final Model Estimation (RSE %)", "setting": "[1]; final model", "value": "3.96 L·h^−1 and 3.96 (6) L·h^−1"}, {"measurement": "σprop (proportional residual error, CV), Final Model Estimation (RSE %)", "setting": "[1]; final model", "value": "20 (10) %"}, {"measurement": "θAGE (effect of age on CL), Final Model Estimation (RSE %)", "setting": "[1]; final model, AGEmedian = 63 years", "value": "−0.69 (32)"}, {"measurement": "θFFM (effect of fat-free mass on CL), Final Model Estimation (RSE %)", "setting": "[1]; final model, FFMmedian = 46.35 kg", "value": "1.41 (17)"}, {"measurement": "substrate of cytochrome P (CYP) enzymes", "setting": "[2]", "value": "not a substrate"}, {"measurement": "Steady-state at day", "setting": "[3]; Figure 1", "value": 15, "unit": "days"}, {"measurement": "excreted in the urine", "setting": "[3]", "value": 19, "unit": "%"}, {"measurement": "terminal half-life", "setting": "[3]", "value": "around 127 h"}, {"measurement": "time at which maximum concentration is reached after administration", "setting": "[3]", "value": "approximately 1.5 h"}, {"measurement": "excreted in the urine", "setting": "[3]; listed as Trametinib", "value": "≤ 19", "unit": "%"}, {"measurement": "bioavailability", "setting": "[3]; oral", "value": 72, "unit": "%"}, {"measurement": "lipophilicity (in words)", "setting": "[4]", "value": "lipophilic"}, {"measurement": "ka (absorption rate constant)", "setting": "[5]", "value": "0.913 h^−1 and 0.913 fixed h^−1"}, {"measurement": "Most frequent adverse events: Abdominal pain", "setting": "[6]", "value": 17, "unit": "%"}, {"measurement": "Most frequent adverse events: Arthralgia", "setting": "[6]", "value": 26, "unit": "%"}, {"measurement": "Most frequent adverse events: Asthenia", "setting": "[6]", "value": 15, "unit": "%"}, {"measurement": "Most frequent adverse events: Chills", "setting": "[6]", "value": 33, "unit": "%"}, {"measurement": "Most frequent adverse events: Constipation", "setting": "[6]", "value": 13, "unit": "%"}, {"measurement": "Most frequent adverse events: Coughing", "setting": "[6]", "value": 20, "unit": "%"}, {"measurement": "Most frequent adverse events: Cutaneous dryness", "setting": "[6]", "value": 13, "unit": "%"}, {"measurement": "Most frequent adverse events: Diarrhea", "setting": "[6]", "value": 32, "unit": "%"}, {"measurement": "Most frequent adverse events: Erythema", "setting": "[6]", "value": 10, "unit": "%"}, {"measurement": "Most frequent adverse events: Fatigue", "setting": "[6]", "value": 38, "unit": "%"}, {"measurement": "Most frequent adverse events: Flu infection", "setting": "[6]", "value": 11, "unit": "%"}, {"measurement": "Most frequent adverse events: Haemorrhages", "setting": "[6]", "value": 19, "unit": "%"}, {"measurement": "Most frequent adverse events: Headache", "setting": "[6]", "value": 33, "unit": "%"}, {"measurement": "Most frequent adverse events: Hypertension", "setting": "[6]", "value": 19, "unit": "%"}, {"measurement": "Most frequent adverse events: Increase in ALAT", "setting": "[6]", "value": 14, "unit": "%"}, {"measurement": "Most frequent adverse events: Increase in ASAT", "setting": "[6]", "value": 13, "unit": "%"}, {"measurement": "Most frequent adverse events: Loss of appetite", "setting": "[6]", "value": 14, "unit": "%"}, {"measurement": "Most frequent adverse events: Muscle cramps", "setting": "[6]", "value": 10, "unit": "%"}, {"measurement": "Most frequent adverse events: Myalgia", "setting": "[6]", "value": 15, "unit": "%"}, {"measurement": "Most frequent adverse events: Nausea", "setting": "[6]", "value": 38, "unit": "%"}, {"measurement": "Most frequent adverse events: Pain in the extremities", "setting": "[6]", "value": 12, "unit": "%"}, {"measurement": "Most frequent adverse events: Peripheral oedema", "setting": "[6]", "value": 16, "unit": "%"}, {"measurement": "Most frequent adverse events: Pruritus", "setting": "[6]", "value": 10, "unit": "%"}, {"measurement": "Most frequent adverse events: Pyrexia", "setting": "[6]", "value": 58, "unit": "%"}, {"measurement": "Most frequent adverse events: Rash", "setting": "[6]", "value": 24, "unit": "%"}, {"measurement": "Most frequent adverse events: Rhinopharyngitis", "setting": "[6]", "value": 11, "unit": "%"}, {"measurement": "Most frequent adverse events: Vomiting", "setting": "[6]", "value": 29, "unit": "%"}, {"measurement": "Most frequent adverse events: dizziness", "setting": "[6]", "value": 11, "unit": "%"}, {"measurement": "CL in a previous popPK model (first value named)", "setting": "[7]", "value": 5.83, "unit": "L/h"}, {"measurement": "CL in a previous popPK model (second value named)", "setting": "[7]", "value": 4.91, "unit": "L/h"}, {"measurement": "peripheral volume of distribution", "setting": "[7]; ref Balakirouchenane et al. [38]", "value": 417, "unit": "L"}, {"measurement": "central volume of distribution", "setting": "[7]; ref Ouellet et al. [37]", "value": 214, "unit": "L"}, {"measurement": "peripheral volume of distribution", "setting": "[7]; ref Ouellet et al. [37]", "value": 568, "unit": "L"}]}
